# Key:
# [1] = system: Tyrosine-protein kinase ABL1 (Homo sapiens), P00519 [H396P]; conditions: at 10 µM
# [2] = biological target: T1, Ribosomal protein S6 kinase alpha-1 (Homo sapiens, UniProt Q15418); assay: Selectivity interaction (Kinase panel (DSF assay)) EUB0001558a RPS6KA1
# [3] = biological target: T2, Serine/threonine-protein kinase ULK3 (Homo sapiens) (UniProt Q6PHR2); assay: Selectivity interaction (Kinase panel (DSF assay)) EUB0001558a ULK3
# T2 sequence (whole entry): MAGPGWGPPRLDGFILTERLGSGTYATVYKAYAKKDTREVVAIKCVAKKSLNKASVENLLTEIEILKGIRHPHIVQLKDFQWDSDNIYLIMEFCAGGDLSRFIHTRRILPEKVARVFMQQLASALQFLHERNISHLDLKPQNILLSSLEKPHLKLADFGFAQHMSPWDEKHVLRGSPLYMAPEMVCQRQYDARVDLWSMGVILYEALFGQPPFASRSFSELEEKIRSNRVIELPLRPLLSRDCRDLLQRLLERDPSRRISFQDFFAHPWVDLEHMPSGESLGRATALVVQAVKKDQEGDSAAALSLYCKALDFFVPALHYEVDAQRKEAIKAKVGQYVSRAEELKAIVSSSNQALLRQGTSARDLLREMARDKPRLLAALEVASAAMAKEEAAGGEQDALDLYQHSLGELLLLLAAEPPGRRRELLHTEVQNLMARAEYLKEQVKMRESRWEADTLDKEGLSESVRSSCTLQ
# [4] = biological target: Calcium/calmodulin-dependent protein kinase type 1D (Homo sapiens) (UniProt Q8IU85); assay: Selectivity interaction (Kinase panel (DSF assay)) EUB0001558a CAMK1D
# [5] = system: Tyrosine-protein kinase ABL1 (Homo sapiens), P00519 [Q252H]; assay: Selectivity interaction (KinomeScan (DiscoverX)) EUB0000229b ABL1; conditions: at 1 µM
# [6] = biological target: NT-3 growth factor receptor (Homo sapiens, UniProt Q16288); assay: Selectivity interaction (ProQinase) EUB0000171b NTRK3
# NT-3 growth factor receptor, sequence (Q16288 32-839 limits assumed): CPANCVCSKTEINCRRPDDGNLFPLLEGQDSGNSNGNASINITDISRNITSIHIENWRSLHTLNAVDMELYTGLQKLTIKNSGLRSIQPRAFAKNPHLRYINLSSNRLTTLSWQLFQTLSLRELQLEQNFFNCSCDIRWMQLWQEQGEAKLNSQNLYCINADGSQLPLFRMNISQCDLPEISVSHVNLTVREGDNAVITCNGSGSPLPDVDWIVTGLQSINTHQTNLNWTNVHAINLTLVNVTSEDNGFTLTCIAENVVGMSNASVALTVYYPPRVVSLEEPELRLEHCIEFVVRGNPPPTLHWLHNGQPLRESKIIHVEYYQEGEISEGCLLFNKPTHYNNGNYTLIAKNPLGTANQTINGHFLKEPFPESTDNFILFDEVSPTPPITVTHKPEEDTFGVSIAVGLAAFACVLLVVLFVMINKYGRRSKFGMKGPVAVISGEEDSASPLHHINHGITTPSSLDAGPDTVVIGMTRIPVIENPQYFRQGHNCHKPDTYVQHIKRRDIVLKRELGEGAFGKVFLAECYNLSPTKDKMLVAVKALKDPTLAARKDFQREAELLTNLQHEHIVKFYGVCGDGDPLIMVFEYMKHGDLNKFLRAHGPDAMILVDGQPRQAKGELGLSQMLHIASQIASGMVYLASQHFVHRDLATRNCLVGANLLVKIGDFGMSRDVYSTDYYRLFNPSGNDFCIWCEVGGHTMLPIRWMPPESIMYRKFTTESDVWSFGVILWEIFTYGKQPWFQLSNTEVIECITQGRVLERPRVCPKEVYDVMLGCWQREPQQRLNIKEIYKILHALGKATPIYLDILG
# [7] = biological target: Citron Rho-interacting kinase (Homo sapiens) (UniProt O14578); assay: Selectivity interaction (KinomeScan (DiscoverX)) EUB0001079a CIT; conditions: at 1 µM
# Citron Rho-interacting kinase (Homo sapiens), sequence (O14578 whole entry): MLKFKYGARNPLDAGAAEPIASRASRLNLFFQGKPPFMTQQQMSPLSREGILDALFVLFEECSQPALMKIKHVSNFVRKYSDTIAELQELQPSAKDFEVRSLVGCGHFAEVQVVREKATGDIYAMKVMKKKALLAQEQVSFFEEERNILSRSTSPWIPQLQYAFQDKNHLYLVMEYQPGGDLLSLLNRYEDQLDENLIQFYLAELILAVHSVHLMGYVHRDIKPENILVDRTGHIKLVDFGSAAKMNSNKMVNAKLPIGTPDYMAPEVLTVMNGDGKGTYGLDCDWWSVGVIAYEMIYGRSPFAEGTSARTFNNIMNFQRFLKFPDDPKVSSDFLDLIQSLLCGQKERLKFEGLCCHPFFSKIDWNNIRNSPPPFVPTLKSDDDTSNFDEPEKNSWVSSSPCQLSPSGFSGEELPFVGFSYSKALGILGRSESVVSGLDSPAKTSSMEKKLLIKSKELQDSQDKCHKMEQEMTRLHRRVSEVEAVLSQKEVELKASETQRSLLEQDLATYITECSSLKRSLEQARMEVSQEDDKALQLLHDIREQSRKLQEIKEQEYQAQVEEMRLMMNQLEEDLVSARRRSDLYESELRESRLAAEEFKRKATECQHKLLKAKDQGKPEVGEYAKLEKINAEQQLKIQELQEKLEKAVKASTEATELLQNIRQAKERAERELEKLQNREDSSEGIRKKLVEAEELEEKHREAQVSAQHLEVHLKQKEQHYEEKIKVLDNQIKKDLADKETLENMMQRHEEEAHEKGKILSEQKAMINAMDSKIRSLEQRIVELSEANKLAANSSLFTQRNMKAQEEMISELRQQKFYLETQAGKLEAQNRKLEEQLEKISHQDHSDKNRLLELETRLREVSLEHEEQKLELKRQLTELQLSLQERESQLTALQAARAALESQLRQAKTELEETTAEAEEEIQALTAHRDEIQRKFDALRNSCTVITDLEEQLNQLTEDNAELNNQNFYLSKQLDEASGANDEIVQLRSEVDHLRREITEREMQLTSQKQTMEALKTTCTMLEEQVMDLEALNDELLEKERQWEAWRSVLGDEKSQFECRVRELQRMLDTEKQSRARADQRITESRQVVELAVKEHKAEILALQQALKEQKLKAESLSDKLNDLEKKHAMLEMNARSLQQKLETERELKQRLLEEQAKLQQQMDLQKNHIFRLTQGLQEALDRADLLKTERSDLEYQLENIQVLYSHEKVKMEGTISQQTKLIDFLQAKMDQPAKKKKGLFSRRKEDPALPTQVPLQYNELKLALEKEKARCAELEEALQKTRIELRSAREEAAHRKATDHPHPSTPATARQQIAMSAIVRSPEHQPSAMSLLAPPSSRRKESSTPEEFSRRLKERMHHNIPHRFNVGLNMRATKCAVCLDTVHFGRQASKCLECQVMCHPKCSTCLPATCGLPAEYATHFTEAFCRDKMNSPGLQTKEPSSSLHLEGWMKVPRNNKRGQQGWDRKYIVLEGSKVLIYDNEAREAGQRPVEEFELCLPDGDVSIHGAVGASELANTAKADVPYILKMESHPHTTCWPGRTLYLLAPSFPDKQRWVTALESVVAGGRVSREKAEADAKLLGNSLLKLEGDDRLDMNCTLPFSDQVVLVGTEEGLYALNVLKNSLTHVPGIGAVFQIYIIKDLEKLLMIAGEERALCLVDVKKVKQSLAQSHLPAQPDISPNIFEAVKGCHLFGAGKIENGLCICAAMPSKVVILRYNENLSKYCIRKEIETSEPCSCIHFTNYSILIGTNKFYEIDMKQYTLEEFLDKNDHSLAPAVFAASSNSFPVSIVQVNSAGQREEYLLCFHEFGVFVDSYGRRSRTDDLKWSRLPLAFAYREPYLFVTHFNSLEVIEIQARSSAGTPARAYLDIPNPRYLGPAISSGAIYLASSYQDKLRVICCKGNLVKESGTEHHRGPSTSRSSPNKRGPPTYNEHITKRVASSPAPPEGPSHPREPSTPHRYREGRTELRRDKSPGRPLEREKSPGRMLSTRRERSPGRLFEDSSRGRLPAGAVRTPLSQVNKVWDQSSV
# [8] = biological target: ALK tyrosine kinase receptor (Homo sapiens, UniProt Q9UM73); assay: Selectivity interaction (Millipore kinase profiler) EUB0000124b ALK; conditions: at 10 µM
# [9] = biological target: Angiopoietin-1 receptor (Homo sapiens) (UniProt Q02763); assay: Selectivity interaction (KinaseProfiler screening (Millipore)) EUB0000601a TEK; conditions: at 3 µM
# Angiopoietin-1 receptor (Homo sapiens), sequence (Q02763 whole entry): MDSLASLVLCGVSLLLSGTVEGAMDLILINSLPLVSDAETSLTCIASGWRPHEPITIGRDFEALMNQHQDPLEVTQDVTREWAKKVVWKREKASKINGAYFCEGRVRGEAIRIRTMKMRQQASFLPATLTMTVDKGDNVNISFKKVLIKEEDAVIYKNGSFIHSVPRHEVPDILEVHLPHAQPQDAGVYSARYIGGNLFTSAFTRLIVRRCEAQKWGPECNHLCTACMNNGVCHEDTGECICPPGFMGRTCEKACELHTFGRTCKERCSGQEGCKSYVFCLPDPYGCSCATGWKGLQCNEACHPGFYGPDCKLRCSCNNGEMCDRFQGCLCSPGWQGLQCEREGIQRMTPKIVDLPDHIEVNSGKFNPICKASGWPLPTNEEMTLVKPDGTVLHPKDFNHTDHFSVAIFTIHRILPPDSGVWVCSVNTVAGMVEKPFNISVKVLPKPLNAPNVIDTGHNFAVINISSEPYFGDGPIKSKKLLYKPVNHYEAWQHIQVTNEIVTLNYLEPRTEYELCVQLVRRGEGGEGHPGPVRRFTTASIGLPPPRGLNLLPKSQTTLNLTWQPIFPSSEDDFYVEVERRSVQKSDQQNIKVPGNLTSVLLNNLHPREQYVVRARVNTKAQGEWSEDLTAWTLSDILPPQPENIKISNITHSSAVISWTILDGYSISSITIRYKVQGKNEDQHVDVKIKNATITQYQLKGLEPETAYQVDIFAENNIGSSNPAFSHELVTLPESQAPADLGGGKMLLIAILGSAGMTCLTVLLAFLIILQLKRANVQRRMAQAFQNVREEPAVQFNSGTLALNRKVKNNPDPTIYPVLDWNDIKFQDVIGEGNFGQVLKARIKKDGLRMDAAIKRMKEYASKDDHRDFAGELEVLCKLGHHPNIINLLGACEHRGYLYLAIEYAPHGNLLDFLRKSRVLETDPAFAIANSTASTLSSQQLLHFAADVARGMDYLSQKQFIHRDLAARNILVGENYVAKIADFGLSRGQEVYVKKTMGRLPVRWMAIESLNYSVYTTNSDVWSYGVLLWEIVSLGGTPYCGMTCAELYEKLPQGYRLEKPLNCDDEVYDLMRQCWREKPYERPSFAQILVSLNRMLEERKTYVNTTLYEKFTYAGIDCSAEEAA
# [10] = biological target: Angiopoietin-1 receptor (Homo sapiens) (UniProt Q02763); conditions: at 10 µM
# [11] = biological target: Cyclin-dependent kinase 5 (Homo sapiens, UniProt Q00535); assay: Selectivity interaction (ActivX KiNativ screen (kinase selectivity in THP-1 cell lysates)) EUB0000639a CDK5; type: subcellular; conditions: lysate, at 0.01 µM
# Cyclin-dependent kinase 5, sequence (Q00535 whole entry, looked up): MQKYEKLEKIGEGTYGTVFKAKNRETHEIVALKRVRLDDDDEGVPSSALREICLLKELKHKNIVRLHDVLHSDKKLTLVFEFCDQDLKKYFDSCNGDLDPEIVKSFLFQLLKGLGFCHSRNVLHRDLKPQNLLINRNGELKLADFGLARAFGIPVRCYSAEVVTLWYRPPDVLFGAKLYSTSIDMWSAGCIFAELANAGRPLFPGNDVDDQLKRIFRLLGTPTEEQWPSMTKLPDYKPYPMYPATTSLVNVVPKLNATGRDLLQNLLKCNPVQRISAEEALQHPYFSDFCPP
# [12] = biological target: T1, Ribosomal protein S6 kinase alpha-1; assay: Selectivity interaction (ActivX KiNativ screen (kinase selectivity in THP-1 cell lysates)) EUB0000639a RPS6KA1; type: subcellular; conditions: lysate, at 0.01 µM
# [13] = biological target: Dual specificity protein kinase CLK2 (Homo sapiens, UniProt P49760); assay: Selectivity interaction (KinomeScan (DiscoverX)) EUB0000607a CLK2; conditions: at 10 µM
# [14] = biological target: T3, Dual specificity protein kinase TTK (Homo sapiens) (UniProt P33981); assay: Selectivity interaction (KinomeScan (DiscoverX)) EUB0000595a TTK; conditions: at 10 µM
# T3 sequence (whole entry): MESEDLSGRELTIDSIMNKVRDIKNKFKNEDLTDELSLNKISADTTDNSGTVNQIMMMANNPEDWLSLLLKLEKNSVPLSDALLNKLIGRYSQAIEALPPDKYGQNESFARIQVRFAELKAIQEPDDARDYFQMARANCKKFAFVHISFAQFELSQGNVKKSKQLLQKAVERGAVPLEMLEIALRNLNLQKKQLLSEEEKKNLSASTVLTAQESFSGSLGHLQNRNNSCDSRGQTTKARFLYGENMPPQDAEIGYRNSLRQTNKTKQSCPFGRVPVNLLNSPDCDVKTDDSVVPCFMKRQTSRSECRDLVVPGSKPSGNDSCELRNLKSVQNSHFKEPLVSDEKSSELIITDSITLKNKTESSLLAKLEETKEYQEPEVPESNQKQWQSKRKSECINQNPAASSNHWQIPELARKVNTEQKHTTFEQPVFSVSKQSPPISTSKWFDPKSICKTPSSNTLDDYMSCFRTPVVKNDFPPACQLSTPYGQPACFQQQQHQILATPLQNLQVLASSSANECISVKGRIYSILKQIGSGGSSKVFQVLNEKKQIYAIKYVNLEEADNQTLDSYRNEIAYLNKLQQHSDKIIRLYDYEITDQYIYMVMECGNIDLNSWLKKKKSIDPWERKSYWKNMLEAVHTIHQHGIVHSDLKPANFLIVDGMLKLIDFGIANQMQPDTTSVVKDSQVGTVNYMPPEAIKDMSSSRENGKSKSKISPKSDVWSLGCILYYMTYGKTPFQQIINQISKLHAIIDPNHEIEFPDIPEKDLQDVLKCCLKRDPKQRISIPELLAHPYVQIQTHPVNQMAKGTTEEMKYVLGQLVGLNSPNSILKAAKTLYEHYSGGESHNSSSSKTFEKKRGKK
# [15] = biological target: T4, Serine/threonine-protein kinase Nek3 (Homo sapiens) (UniProt P51956); assay: Selectivity interaction (KinomeScan (DiscoverX)) EUB0000618a NEK3; conditions: at 10 µM
# T4 sequence (whole entry): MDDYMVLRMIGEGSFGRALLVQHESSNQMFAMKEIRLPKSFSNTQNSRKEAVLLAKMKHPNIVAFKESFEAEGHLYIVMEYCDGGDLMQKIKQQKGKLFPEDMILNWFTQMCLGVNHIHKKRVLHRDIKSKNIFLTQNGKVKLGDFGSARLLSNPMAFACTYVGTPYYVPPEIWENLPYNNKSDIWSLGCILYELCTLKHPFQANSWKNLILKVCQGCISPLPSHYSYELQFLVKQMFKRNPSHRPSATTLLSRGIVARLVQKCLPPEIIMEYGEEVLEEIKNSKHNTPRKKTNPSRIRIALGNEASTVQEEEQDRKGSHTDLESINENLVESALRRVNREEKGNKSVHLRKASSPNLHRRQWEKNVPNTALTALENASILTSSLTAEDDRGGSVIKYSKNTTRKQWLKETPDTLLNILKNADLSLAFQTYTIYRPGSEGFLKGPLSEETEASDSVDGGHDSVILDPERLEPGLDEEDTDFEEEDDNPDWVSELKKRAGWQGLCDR
# [16] = biological target: Serine/threonine-protein kinase 10 (Homo sapiens) (UniProt O94804); assay: Selectivity interaction (ActivX KiNativ screen (ex vivo kinase selectivity in human PBMCs)) EUB0001619a STK10; type: cell-based; conditions: PBMC, at 1 µM
# T1 sequence (Q15418 whole entry): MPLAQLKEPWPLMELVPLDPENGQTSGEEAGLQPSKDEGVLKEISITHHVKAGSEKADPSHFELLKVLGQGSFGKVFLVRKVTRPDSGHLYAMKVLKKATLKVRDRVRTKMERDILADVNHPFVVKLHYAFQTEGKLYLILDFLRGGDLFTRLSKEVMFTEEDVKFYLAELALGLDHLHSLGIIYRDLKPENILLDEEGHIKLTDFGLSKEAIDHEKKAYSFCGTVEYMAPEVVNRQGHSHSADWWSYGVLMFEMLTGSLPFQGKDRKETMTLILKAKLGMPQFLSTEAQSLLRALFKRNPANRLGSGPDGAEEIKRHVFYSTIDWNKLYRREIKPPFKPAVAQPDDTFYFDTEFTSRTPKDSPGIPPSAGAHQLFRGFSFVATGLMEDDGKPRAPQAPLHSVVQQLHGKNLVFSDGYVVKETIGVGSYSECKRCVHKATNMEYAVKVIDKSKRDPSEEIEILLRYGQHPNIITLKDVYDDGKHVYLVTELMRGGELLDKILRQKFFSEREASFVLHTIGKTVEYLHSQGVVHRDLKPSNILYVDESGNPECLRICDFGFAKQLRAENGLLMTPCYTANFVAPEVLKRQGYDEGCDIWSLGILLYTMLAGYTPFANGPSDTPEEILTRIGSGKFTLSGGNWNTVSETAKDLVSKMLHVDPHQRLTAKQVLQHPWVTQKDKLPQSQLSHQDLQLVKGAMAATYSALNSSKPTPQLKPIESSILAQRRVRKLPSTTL
structure (smiles),measurement,setting,value
CCN(CC)CCCCNc1ncc2cc(-c3cc(OC)cc(OC)c3)c(NC(=O)NC(C)(C)C)nc2n1,% of control,[1],100%
CC(C)(O)[C@H](F)CN1Cc2cc(NC(=O)c3cnn4cccnc34)c(N3CCOCC3)cc2C1=O,dTM,[2],-0.2 K
same,dTM,[3],6.3 K
same,dTM,[4],-0.1 K
COc1cc(N(C)c2ccnc3ccc(C(F)(F)F)cc23)cc(OC)c1OC,% binding,[5],91%
C=CC(=O)Nc1cccc(C(=O)Nc2ccc(Nc3cc(-c4[nH]c(SC)nc4C)ccn3)cc2)c1,% of control,[6]; at 1 µM,99%
same,% of control,[6]; at 5 µM,79%
Nc1cnc(N2CCc3cc(S(=O)(=O)Nc4c(F)cc(Cl)cc4F)cc(N4CCCC4=O)c32)nc1 [TP-020n],% of control,[7],91%
CC(=O)Nc1cccc(-n2c(=O)n(C3CC3)c(=O)c3c(Nc4ccc(I)cc4F)n(C)c(=O)c(C)c32)c1,% of control,[8],166%
CCc1cc(Nc2nccc(-c3c(-c4ccc(OC)c(C(=O)Nc5c(F)cccc5F)c4)nc4ccccn34)n2)c(OC)cc1N1CCC(N2CCN(S(C)(=O)=O)CC2)CC1,% of inhibition,[9],41%
Cc1cc([C@@H](C)Nc2ccccc2C(=O)O)c2nc(N3CCOCC3)cc(=O)n2c1 [AZD-6482],% of control,[10],100%
CC[C@@H]1[C@H](F)C(=O)N[C@@H]1COc1nccc2cc(C(N)=O)c(OC)cc12 [ZIMLOVISERTIB],% of inhibition,[11],-4.7%
same,% of inhibition,[12],25.4%
CNC(=O)Nc1ccc(-c2nc(N3CC4CCC(C3)O4)c3cnn(C4CCC5(CC4)OCCO5)c3n2)cc1,% of control,[13],98%
COCC(=O)NC/C=C/c1ccc2ncnc(Nc3ccc(Oc4ccc(C)nc4)c(C)c3)c2c1 [CP-724714],% of control,[14],80%
O[C@H]1CC[C@H](Nc2ncc3nc(Nc4c(F)cc(F)cc4F)n([C@H]4CCOC4)c3n2)CC1,% of control,[15],100%
N#Cc1cccc(-c2c[nH]c3ncnc(N4CCOCC4)c23)c1,% of inhibition,[16],79%

# Reference: ChEMBL document CHEMBL5465560, “Selectivity Literature for EUbOPEN Chemogenomic Library” (2024)
